Data published in patent US20240209047A1, “GROWTH FACTOR CONJUGATES” (priority 2021, published 2024).
Entries after “also recorded” stand apart in the source; their conditions may differ.

Tests used:
[1] = Persistence of EGF in the wound bed by ELISA specific to anti-human EGF; type: in vivo, mouse; conditions: for persistence of EGF in the wound bed: mass per mm^2 of tissue, in vivo
Method: Detection of crosslinked EGF on dermal wounds: Persistence of CxEGF, qEGF and soluble EGF in the wound bed was determined using ELISA specific to anti-human EGF. Mice were euthanized at each time point and the wound bed was harvested. The tissue was digested using 7.5 Units/ml collagenase in the presence of 1 μM dithiothreitol (DTT) over 2 h at 37° C. This was centrifuged at 14000 RPM and the supernatant following which ELISA was performed. Specificity of the ELISA was verified using mouse recombinant EGF. Amount of EGF (mg) measured on the wound bed was expressed per surface area (mm^2) of the tissue.
The feasibility to tether sulfo-SMCC modified nanospheres to graft tissue was first evaluated (FIG. 9). Full thickness splinted wounds (8 mm in diameter) were created on heterozygous (db+/−;BKS.Cg-m+/+Leprdb) mouse as described above. Wound surfaces were treated with a reducing agent (tris(2-carboxyethyl)phosphine; TCEP) to break the disulfide bonds. The crosslinkers and reducing agents were used at non-toxic doses (FIG. 10). […] Immediately after the treatment, wounds were covered with a semi-occlusive dressing to minimize scab formation (Park Shin Ae et al., 2014). Wound beds were harvested at various time points and the presence of EGF attached on the surfaces was determined by ELISA (FIG. 3B). […] A gradual decrease in the amount of surface immobilized EGF was observed after 2 days. […] We note that the number of disulfide bonds available for anchoring CxEGF is difficult to ascertain in vivo and may thus contribute to the partial surface coverage. Secondary validation of the linkage chemistry was done using an in vitro model of the surface chemistry using (3 mercaptopropyl)trimethoxysilane (MPTS) or trimethoxy(propyl)silane (TPS) and maleimide by a reduction in contact angle and increased thickness of deposition (FIG. 3D). The mercapto group on the MPTS simulated sulfhydryl groups present on a native wound bed, and TPS was devoid of any functional group simulating a passivated wound surface.

[2] = test system: full thickness splinted wounds (8 mm diameter) of db/db mice; test: Wound closure of full thickness splinted dermal wounds in diabetic mice; type: in vivo, mouse; conditions: for percentage wound closure: treated 6 times over 11 days (every other day)
Source text: In vivo studies: All procedures adhered to the recommendations in the Guide for the Care and Use of Laboratory Animals of the National Institutes of Health. The protocol for this experiment was approved by the Institutional Animal Care and Use Committee of University of California, Davis.
Creating of full thickness splinted dermal wounds: Genetically diabetic 12 week old male mice (db/db; BKS.Cg-m+/+Leprdb; Jackson Laboratories, Bar Harbor, ME) were used for this study. […] 8 mm Full thickness wounds were created on the dorsal surface of db/db mice as described previously (Park S. A. et al., 2014).
Mice in the sEGF group received native EGF (300 ng) dissolved in PEG immediately after wounding and twice daily until day 10. The NoTx group remained without any treatment through the study period. All wounds were dressed using a sterile coverslip and a semi-occlusive bandage.
(§1) Clinical and histological analyses: All analyses were performed as described previously (Park S. A. et al., 2014). Briefly, wounds were clinically evaluated and imaged daily, and the wound area was measured using image analysis software, and percentage wound closure was calculated. Mice were humanely euthanized on day 11 and the entire wound bed was harvested. Histologic analyses was performed by a board-certified veterinary pathologist.

HaCaT cells [3] = test: HaCaT proliferation (MTT) on surfaces with covalently immobilized EGF; type: cell-based, human
Method: Human 433 immortalized kertinocytes (HaCaT) cells were cultured in growth medium containing 1% (v/v) serum (FBS). The proliferation rates are expressed as % control when cultured on surfaces [trimethoxy(propyl)silane (TPS) or 3-mercaptopropyl trimethoxysilane (3-MPTS)] immobilized with EGF. As positive control, cells were also cultured in the growth medium containing 10% 437 (v/v) FBS. ***p<0.001, one-way ANOVA followed by Dunnett's multiple comparison test compared with control cultures (cells cultured in media with 1% serum).
In vitro surface modification: An in vitro model of the wound surface was generated by silanizing glass coverslips with either trimethoxy(propyl)silane (TPS) or 3-mercaptopropyl trimethoxysilane (3-MPTS). Disulfide bonds (if any) on the surface of the silanated coverslips were reduced using 10 μM tris(2-carboxyethyl)phosphine (TCEP) for 10 min to generate an abundance of —SH bonds. These exposed —SH groups were used to covalently immobilize EGF.
Measuring bioactivity in vitro: Human immortalized kertinocytes (HaCaT cells) were plated on unmodified glass surfaces, or on surfaces covalently immobilized with EGF, or on surfaced with quenched EGF, in Dulbeccos' modified Eagle's medium (DMEM) supplemented with 1% fetal bovine serum and proliferation was determined after 5 days using the MTT assay (Raghunathan et al., 2013). […]

[4] = test system: wound bed from a db/db mouse; test: Histopathological evaluation of wound bed of db/db mice after 11 days; type: in vivo
Source text: FIG. 5A-C. Histopathological evaluations of a wound bed from a db/db mouse treated with/without crosslinked EGF over 11 days upon wounding. Scale Bars=500 μm. (A) Measurement of epithelial gap (blue line) and reepithelialization (red line). The epithelial gap was defined as the distance between the advancing edges of keratinocyte migration measured in millimeters. Length of reepithelialization was defined as the length of the layer of proliferating keratinocytes covering the wound area. This value was obtained by measuring s the distance between the free edge of the keratinocyte layer and the base where the cells were still associated with native, non-affected dermal tissue. The final value was the sum of distance in millimeters of both sides. H&E staining. Graphs indicate the mean f standard deviation of epithelial gap/re-epithelialized measure on surface wounds after 11 days with or without treatments. (B) Measurement of the fibrovascular dermal proliferation in the wound bed. Using picrosirius red stain under polarized light the bright collagen fibers of the wound bed are highlighted and automatically measured by the software. The final data is expressed as a percentage of outlined wound area comprised of collagen. Graphs indicate the mean f standard deviation of % collagen measured in surface wounds after 11 days with or without treatments. […] The inflammatory response was assessed using a semi-quantitative scoring system ranging from 0 to 4 where 0 indicates no inflammation, 1 indicates 0-25% of the wound area affected, 2 indicates 25-50% of the wound area affected, 3 indicates 50-75% of the wound area affected, and 4 indicates 75% of the wound area affected. H&E staining. Graphs indicate the mean±standard deviation of inflammation score. *p<0.05 compared with qEGF-6x, #p<0.05 compared with NoTx (t-test/Mann-Whitney rank sum test).
FIG. 11. Percentage distribution of inflammatory cells in wound bed of diabetic mice at the end of 11 days. […] Results are mean f standard deviation of the ratio of positive cells to total number of cells in the wound bed.
as §1

HaCaT cells [5] = test: HaCaT proliferation with soluble EGF; type: cell-based, human; conditions: 1% FBS, 0-80 ng/ml soluble EGF
Method: FIG. 8. In vitro proliferation rates of spontaneously immortalized human keratinocytes (HaCaT cells), cultured in growth medium containing 1% (v/v) serum (FBS), treated with 0-80 ng/ml soluble EGF. Results are mean f standard deviation, ***p<0.001 (ANOVA followed by Dunnett's multiple comparison test) compared with control cultures.
EGF is a key growth factor involved in triggering wound re-epithelialization, one of the critical early events in wound closure, whose prolonged exposure is required for eliciting a cellular response (Bennett N. T. and Schultz G. S., 1993, Bennett N. T. and Schultz G. S., 1993, 171 Gipson and Inatomi, 1995, Jost et al., 2000). […] A full thickness splinted wound (8 mm in diameter) was created on each heterozygous (db+/−; BKS.Cg-m+/+ Leprdb) mouse as described previously (Park Shin Ae et al., 2014). […] Functional bioactivity of EGF was determined in vitro using spontaneously transformed keratinocytes (HaCaT cell line) from histologically normal skin (FIG. 8). As a possible contributor to the lack of significant positive effect, we observed a rapid loss of recombinant human EGF from the surface of wounds within 1 h of topical administration (FIG. 2B). […]

deep-partial burn wounds = conditions: cited from earlier work
[6] = 30 ng crosslinked onto TCEP treated wound surface
[7] = 6x, every other day over 11 days
[8] = ratio of positive cells to total cells, after 11 days

CxEGF: Human recombinant EGF conjugated with sulfo-SMCC, covalently crosslinked onto TCEP-reduced wound surface
apparent surface coverage [1, 6]: 2 pg/mm^2 | sustained surface immobilization of the growth factor [1, 6]: 2 days | persistence of EGF in the wound bed ([1]; ELISA): increases persistence of EGF on the wound surface | apparent surface coverage (equivalent) ([1]; equivalent of the pg/mm^2 value): 1.99×10^8 molecules/mm^2 | surface coverage as fraction of a theoretical monolayer of EGF ([1]; theoretical monolayer 213.6 pg/mm^2): 1/100 | wound closure rate (reduction of wound radii) ([2]; 1x, immobilization only once immediately after wounding): no significant effects on wound closure rate | wound closure rate (decrease in wound radius per day) ([2]; 3x, every 4 days): significantly higher wound closure rate | wound closure rate (decrease in wound radius per day) [2, 7]: significantly higher wound closure rate | percentage wound closure ([2]; db/db mice): significant acceleration of wound closure; also recorded: significantly improved wound healing | proliferation rate (% control) (HaCaT cells [3]; HaCaT, 1% FBS, TPS or 3-MPTS surfaces immobilized with EGF): strongly promotes proliferation | increase in cell proliferation (HaCaT cells [3]; immobilized on MPTS or TPS coated glass, MTT, after 3 days of treatment): over 2 fold | inflammation (semi-quantitative score 0 to 4) ([4]; 6x, day 11, H&E): reduction in inflammation | epithelial gap ([4]; 6x, day 11, H&E, versus qEGF, no treatment or soluble EGF): dramatic decreases in epithelial gap | inflammation (semi-quantitative score 0 to 4) ([4]; 6x, day 11, H&E, listed as Cross linked EGF): elicited less inflammation | collagen content ([4]; 6x, day 11, picrosirius red): comparable collagen content | F-480 positive macrophages in wound bed [4, 8]: No statistically significant differences | GR1 positive granulocytes in wound bed [4, 8]: No statistically significant differences

sEGF: Human recombinant EGF (ProspecBio) dissolved in 5% (w/v) polyethylene glycol, applied topically
persistence of EGF in the wound bed ([1]; ELISA): rapidly removed from wound surface | loss of recombinant human EGF from the surface of wounds after topical administration ([1]; topical administration, wound surface, ELISA): ≤ 1 h | percentage wound closure / epithelial closure ([2]; soluble EGF 300 ng topically twice daily, over 11 days, db/db mice): did not significantly alter wound healing or epithelial closure; also recorded: did not promote epithelial closure | in vitro proliferation rate (HaCaT cells [5]): increased cell proliferation

aFGF: topical recombinant human acidic fibroblast growth factor
fully healed rate (deep-partial burn wounds; deep-partial burn wounds, versus placebo): 53.85% | mean healed time of the burn wounds (deep-partial burn wounds; placebo 18.92±0.49, p=0.035): 17.23±0.53

qEGF: s-SMCC conjugated EGF with its maleimide group quenched with β-mercaptoethanol (NSDSECPLSHDGYCLHDGVCMYIEALDKYACNCVVGYIGERCQYRDLKWWELR; Epidermal growth factor sulfo-SMCC, maleimide quenched with β-mercaptoethanol; UniProt P01133 971-1023, looked up) [reference compound]
wound closure rate (decrease in wound radius per day) [2, 7]: ineffective in altering wound healing rates | percentage wound closure ([2]; db/db mice): NoTx group had a significantly higher percentage wound closure compared to the qEGF group
